Measured values published in publication PMC4186475 (Influenza and Other Respiratory Viruses, 2013).

Tests used:
[1] = system: neuraminidase (NA) of influenza A (H1N1)pdm09 viruses; format: biochemical, influenza A (H1N1)pdm09 virus
[2] = system: neuraminidase (NA) of variant influenza A (H3N2)v viruses; format: biochemical, influenza A (H3N2)v virus
[3] = system: neuraminidase (NA) of influenza B viruses; format: biochemical, influenza B virus

Structure (SMILES)	Fold change in IC50 of test viruses, Approach #1 [1]	Fold change in IC50 of test viruses, Approach #2 [1]	Fold change in IC50 of test viruses, Approach #3 [1]	fold change in IC50 of outliers [1]	fold change in IC50 of outliers [2]	Fold change in IC50 of test viruses, Approach #2 [3]
CCOC(=O)C1=C[C@@H](OC(CC)CC)[C@H](NC(C)=O)[C@@H](N)C1 [Oseltamivir, Oseltamivir (carboxylate)]	319–1474 (8) fold	182–1403 (8) fold	213–1637 (8) fold	38-27-294·72 (213–1637) fold	5·30 (35) fold	5–8 (2) fold
CC(=O)N[C@H]1[C@H]([C@H](O)[C@H](O)CO)OC(C(=O)O)=C[C@@H]1N=C(N)N [Zanamivir, zanamivir]					35·74 (70) fold	7 (1) fold
